Measured values: ChEMBL document CHEMBL2380199, “Ostreol A: a new cytotoxic compound isolated from the epiphytic dinoflagellate Ostreopsis cf. ovata from the coastal waters of Jeju Island, Korea” (Bioorg Med Chem Lett, 2013)
In brackets after ≈: the same amount, converted by molar mass.

Assay: Toxicity in Artemia salina after 24 hrs
Assay type: organism-based
Conditions: in vivo, read-out: LD50

| SMILES | LC50 at 24 h |
| --- | --- |
| CC1=C(O)[C@@](O)([C@@H]2C[C@H]3OC(=O)[C@H](C)[C@@H]4CCC[C@@]5(CC[C@H](O5)[C@H](O)[C@@]5(C)CC(=O)[C@H](O5)[C@H]5C[C@]6(C)CC[C@](O5)(O6)[C@H]5CC[C@](C)(C[C@@H](C)/C=C(C)/C=C/[C@H]3O2)O5)O4)OCC1 | 2.5 µg/mL (≈ 2.92 µM) |
| C=CCC/C=C/CCCC/C=C/[C@@H](O)[C@H](O)[C@@H]1O[C@@H]([C@H](O)[C@H](O)C(=C)CC[C@@H](O)[C@H]2C[C@@H](O)[C@@H](O)[C@H]([C@@H](O)[C@H](O)/C=C(C)/C=C/CC(O)CC(O)CNC(=O)C(O)C(O)C/C=C\C(O)C(O)/C(C)=C/CCCC(O)/C=C/CC(O)/C=C/CC(O)CN)O2)C[C@@H](O)[C@H]1O (some centres not stated) | 0.9 µg/mL (≈ 0.685 µM) |
